From the NIST ThermoML archive (doi:10.1016/j.fluid.2017.06.018)

Tests used:
[1] = xn = mol fraction of the nth substance listed; settings: 100 kPa, Liquid; for viscosity: Falling or rolling sphere viscometry; for mass density: Vibrating tube method
[2] = refractive index (Na D-line) (dimensionless); xn = mol fraction of the nth substance listed; settings: 100 kPa, Liquid, Standard Abbe refractometry

NCCNCCN [di(2-aminoethyl)amine] + NCCO
Settings | mass density, 298.15 K [kg/m3] | mass density, 303.15 K [kg/m3] | mass density, 308.15 K [kg/m3] | refractive index, 298.15 K | refractive index, 303.15 K | refractive index, 308.15 K | viscosity, 298.15 K [mPa·s] | viscosity, 303.15 K [mPa·s] | viscosity, 308.15 K [mPa·s]
[1], x2 = 0 | 945.8 | 942.1 | 937.8 | – | – | – | 5.63 | 4.5 | 3.85
[1], x2 = 0.1619 | 956.5 | 953.1 | 949.1 | – | – | – | 8.28 | 6.59 | 5.38
[1], x2 = 0.2973 | 964.6 | 961.1 | 957.1 | – | – | – | 10.37 | 8.33 | 6.68
[1], x2 = 0.4258 | 972.6 | 969 | 965.3 | – | – | – | 12.15 | 9.76 | 7.8
[1], x2 = 0.5307 | 979.4 | 975.9 | 972.3 | – | – | – | 13.87 | 11.18 | 8.89
[1], x2 = 0.6308 | 986.3 | 982.8 | 979.2 | – | – | – | 15.47 | 12.48 | 9.99
[1], x2 = 0.7174 | 992.7 | 989.2 | 985.6 | – | – | – | 16.82 | 13.6 | 10.89
[1], x2 = 0.798 | 998.7 | 995.5 | 992 | – | – | – | 18.22 | 14.73 | 11.84
[1], x2 = 0.879 | 1005.1 | 1001.7 | 998.5 | – | – | – | 19.23 | 15.49 | 12.42
[1], x2 = 0.9336 | 1008.9 | 1005.6 | 1002.4 | – | – | – | 19.31 | 15.49 | 12.34
[2], x2 = 0 | – | – | – | 1.4822 | 1.4808 | 1.4793 | – | – | –
[2], x2 = 0.0989 | – | – | – | 1.4815 | 1.4802 | 1.4791 | – | – | –
[2], x2 = 0.2021 | – | – | – | 1.4806 | 1.4791 | 1.4778 | – | – | –
[2], x2 = 0.3013 | – | – | – | 1.4794 | 1.4778 | 1.4765 | – | – | –
[2], x2 = 0.4007 | – | – | – | 1.4778 | 1.4764 | 1.4752 | – | – | –
[2], x2 = 0.4984 | – | – | – | 1.4758 | 1.4743 | 1.4729 | – | – | –
[2], x2 = 0.6007 | – | – | – | 1.4731 | 1.4717 | 1.4703 | – | – | –
[2], x2 = 0.7027 | – | – | – | 1.4696 | 1.4683 | 1.467 | – | – | –
[2], x2 = 0.8002 | – | – | – | 1.4657 | 1.4643 | 1.4631 | – | – | –
[2], x2 = 0.8987 | – | – | – | 1.4608 | 1.4591 | 1.4577 | – | – | –

NCCNCCO [N-(2-aminoethyl)ethanolamine] + NCCO
Settings | mass density, 298.15 K [kg/m3] | mass density, 303.15 K [kg/m3] | mass density, 308.15 K [kg/m3] | refractive index, 298.15 K | refractive index, 303.15 K | refractive index, 308.15 K | viscosity, 298.15 K [mPa·s] | viscosity, 303.15 K [mPa·s] | viscosity, 308.15 K [mPa·s]
[1], x2 = 0 | 1025.8 | 1021.3 | 1016.3 | – | – | – | 98.62 | 70.57 | 53.11
[1], x2 = 0.1072 | 1025.7 | 1021.4 | 1016.6 | – | – | – | 95.09 | 69.25 | 52.77
[1], x2 = 0.2634 | 1025.2 | 1020.9 | 1016.2 | – | – | – | 90.58 | 67.59 | 52.68
[1], x2 = 0.4233 | 1024.4 | 1020.2 | 1015.7 | – | – | – | 78.29 | 59.5 | 46.92
[1], x2 = 0.5481 | 1023.4 | 1019.3 | 1014.9 | – | – | – | 64.72 | 48.92 | 38.49
[1], x2 = 0.6305 | 1022.5 | 1018.4 | 1014.1 | – | – | – | 53.12 | 39.84 | 31.01
[1], x2 = 0.6851 | 1021.7 | 1017.6 | 1013.4 | – | – | – | 44.75 | 32.81 | 25.15
[1], x2 = 0.7988 | 1019.4 | 1015.5 | 1011.4 | – | – | – | 27.93 | 20.04 | 14.71
[1], x2 = 0.8459 | 1018.2 | 1014.3 | 1010.3 | – | – | – | 22.36 | 15.94 | 11.31
[1], x2 = 0.9377 | 1015.2 | 1011.4 | 1007.5 | – | – | – | 17.18 | 12.82 | 9.55
[2], x2 = 0 | – | – | – | 1.4843 | 1.4827 | 1.4811 | – | – | –
[2], x2 = 0.1005 | – | – | – | 1.4824 | 1.481 | 1.4796 | – | – | –
[2], x2 = 0.1993 | – | – | – | 1.4799 | 1.4785 | 1.4771 | – | – | –
[2], x2 = 0.299 | – | – | – | 1.4774 | 1.476 | 1.4745 | – | – | –
[2], x2 = 0.4047 | – | – | – | 1.4742 | 1.4728 | 1.4715 | – | – | –
[2], x2 = 0.5033 | – | – | – | 1.4714 | 1.47 | 1.4685 | – | – | –
[2], x2 = 0.5985 | – | – | – | 1.4683 | 1.4668 | 1.4652 | – | – | –
[2], x2 = 0.6981 | – | – | – | 1.4647 | 1.4633 | 1.462 | – | – | –
[2], x2 = 0.7985 | – | – | – | 1.4611 | 1.4598 | 1.4585 | – | – | –
[2], x2 = 0.8996 | – | – | – | 1.4573 | 1.4559 | 1.4545 | – | – | –
